Non-standard residues stand in square brackets, D forms with d. Residues, ends and D or L forms follow the SMILES beside them. Dopa = N[C@@H](Cc1ccc(O)c(O)c1)C(=O)O
Assays:
[1] = target: T1, Solute carrier family 15 member 1 (Homo sapiens) (UniProt P46059); test: TP_TRANSPORTER: uptake in Xenopus laevis oocytes; assay type: functional, cell-based; settings: Oocyte
T1 sequence (whole entry): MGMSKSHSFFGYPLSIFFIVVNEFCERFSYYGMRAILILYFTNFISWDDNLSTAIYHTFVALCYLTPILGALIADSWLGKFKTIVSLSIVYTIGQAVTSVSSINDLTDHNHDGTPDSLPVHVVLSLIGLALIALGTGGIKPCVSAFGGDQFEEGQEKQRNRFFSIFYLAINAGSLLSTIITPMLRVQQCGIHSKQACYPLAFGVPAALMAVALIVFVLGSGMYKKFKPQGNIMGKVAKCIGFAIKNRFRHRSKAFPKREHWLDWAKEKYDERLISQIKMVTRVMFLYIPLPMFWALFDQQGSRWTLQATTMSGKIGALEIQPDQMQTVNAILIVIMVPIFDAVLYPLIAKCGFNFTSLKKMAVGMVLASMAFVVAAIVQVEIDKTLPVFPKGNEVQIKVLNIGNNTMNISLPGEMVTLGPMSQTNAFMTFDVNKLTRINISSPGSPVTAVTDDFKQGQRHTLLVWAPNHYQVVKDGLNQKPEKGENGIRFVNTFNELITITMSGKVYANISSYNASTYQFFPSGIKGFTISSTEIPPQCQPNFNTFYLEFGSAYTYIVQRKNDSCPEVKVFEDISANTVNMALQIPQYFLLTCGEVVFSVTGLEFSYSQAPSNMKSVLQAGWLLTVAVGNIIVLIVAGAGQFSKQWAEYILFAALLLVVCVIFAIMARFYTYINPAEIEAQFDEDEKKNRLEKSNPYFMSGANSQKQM

[2] = target: T1, Solute carrier family 15 member 1 (Homo sapiens); test: TP_TRANSPORTER: inhibition of Gly-Sar uptake (Gly-Sar: 20 uM, L-dopa-L-Phe: 1000 uM) in Caco-2 cells; assay type: functional, cell-based

**Q.** With NC(=O)[C@H](Cc1ccccc1)NC(=O)[C@@H](N)Cc1ccccc1 (H-Phe-Phe-NH2) as the compound, how does the Activity [1] read?
**A.** substrate [+]

**Q.** Which Activity [1] does the source give for N[C@@H](Cc1ccccc1)C(=O)N1CCC[C@H]1C(=O)O here?
**A.** substrate [+]

**Q.** With N[C@@H](Cc1ccc(O)c(O)c1)C(=O)N[C@@H](Cc1ccccc1)C(=O)O (H-[Dopa]-Phe-OH) as the compound, how does the Activity [1] read?
**A.** substrate [+]

**Q.** And the Activity [2]?
**A.** inhibitor [20% (at a rough estimate) of control]

**Q.** Which Activity [1] does the source give for N[C@@H](Cc1ccccc1)C(=O)N1CCC[C@@H]1C(=O)O here?
**A.** substrate [+]
